# Results as given in US8476455B2, “1-N-phenyl-amino-1h-imidazole derivatives and pharmaceutical compositions containing them” (Laboratoire Theramex, priority 2003, dated 2013).
# “Also recorded” adds a separate entry of the source.
# Key:
# steroid sulfatase = test: Anti uterotrophic/anti steroid sulfatase activity in vivo; parameters: species or system rat
# Method: Wistar female rats were ovariectomized and left to rest for 4 weeks. Prior to treatment, the absence of cyclicity was checked by vaginal smears. Animals were supplemented with estrone sulfate (EIS) at 50 μg/kg/day s.c., alone or combined with oral administration of potential sulfatase inhibitors, at 1 mg/kg/day for 4 days. The uteri were removed, freed of adjacent tissue and wet weighed (Table 3).
# Estrone sulfatase activity is measured according to the method described by Purohit et al., with slight modifications. Briefly, uteri were thawed, weighed and homogenized. Aliquots of the supernatant were treated with dextran-coated charcoal and assayed for sulfatase. E1S activity is assessed after 30 min of incubation with 5 nM of ^3H-E1S and 20 μM of unlabelled E1S as substrate. Estrone sulfatase activity is expressed as pmol/h/mg protein and reported as percentage of inhibition vs E1S; for uterus weights, results are expressed as % of inhibition of the E1S induced stimulation
# [1] = molecular target: human carbonic anhydrase II (Homo sapiens, UniProt P00918); test: Human carbonic anhydrase II activity (p-nitrophenyl acetate, colorimetric); format: biochemical; settings: read-out: Human carbonic anhydrase II activity IC50 (nm) ± S.E.M.
# Method: Briefly, in this assay, human carbonic anhydrase II catalyses the conversion of p-nitrophenyl acetate into pnitrophenol. The potential inhibitory effect of test compounds was evaluated by colorimetric determination of prnitrophenol produced during the enzymatic reaction. The optical density levels obtained without inhibitor will be referred to as “total activity”. The levels obtained without Inhibitor and without the enzyme will be referred to as “blank” in order to assess any interference with the substrate during the assay (Table 2).
# aromatase = test: Inhibition of estradiol peak, in vivo aromatase inhibition model; parameters: species or system rat; settings: female rats, 24 hours after one oral administration
# Method: One hundred IOPS Wistar female rats, weighing 180 to 200 g, were accommodated by four in stainless steel mesh cages. […] Vaginal smears were performed for each animal, each morning, in order to establish the different phases of cycle. […] Starting at 4.00 pm, animals received an oral administration of formulations. 24 hours later, samples of serum were collected and estradiol level were determined as previously described (Table 4).
# Ishikawa cells = test: Alkaline phosphatase activity in Ishikawa cells (estrogenic potency); format: cell-based; settings: hydrochloride
# Method: Ishikawa cells were plated into 96-well microplates 48 hours before studies. The next day, the medium was replaced by phenol red free medium supplemented with 5% charcoal-stripped dFCS. 24 hours later, the medium was renewed and compounds were added to the plated cells and incubated for an additional four-day period. […] At the end of the incubation period, alkaline phosphatase activity (APase) was assayed by a method involving the hydrolysis of p-nitrophenyl phosphate to p-nitrophenol and spectrophotometric determination of the product at 405 nm.
# In brief, the microplates were first rinsed twice with cold phosphate buffered solution and then placed at −80° C. for at least 15 minutes. After thawing at room temperature, 50 μl ice-cold solution containing 5 mM p-nitrophenyl phosphate was added to each well. After a 15 to 60 minute incubation period at room temperature, the intensity of the yellow color generated by the production of p-nitrophenol was measured into each well at 405 nm.
# For each tested concentration, APase activity, reflected by absorbance, was first expressed as fold increase over control (FI) and then as percentage of E2 activity (10^-8 M) chosen equal to 100%.
smiles,measurement,setting,value
"Cl.N#Cc1ccc(N(Cc2ccc(OS(N)(=O)=O)c(Br)c2)n2ccnc2)cc1 [Ex 45, Sulfamic acid 2-bromo-4-{[N-(4-cyanophenyl)-N-(1H-imidazol-1yl)amino]methyl}phenyl ester, hydrochloride]",inhibition of E1S (sulfatase) concluded from uterus weight inhibition,steroid sulfatase; concluded from linear correlation between sulfatase inhibition and uterus weight inhibition (WO 2004/101545),> 90%
same,% inhibition (uterus weight),"steroid sulfatase; ovariectomized Wistar female rats, E1S 50 μg/kg/day s.c., oral 1 mg/kg/day for 4 days, % of inhibition of the E1S induced stimulation",70%
same,IC50,[1],16.2 ± 3.3 nM
same,melting point,,145 °C
same,% inhibition (estradiol peak),aromatase,28%
same,estrogenicity in vitro (in words),Ishikawa cells,not estrogenic; also recorded: lack of estrogenicity
